# Experiments:
# SARS-CoV-2 = assay type: cell-based; settings: 1-hour contact time at 22 ± 2° C.; versus virus control titer 5.0
compound,measurement,setting,value
CCO [Ethanol],LRV (log reduction value),SARS-CoV-2,>4.3
same,Toxicity (highest dilution of the endpoint titer where full (80-100%) cytotoxicity was observed),Vero 76 cells,None

# Reference: patent publication US20230241126A1 (priority 2022, published 2023)
